Assay results as given in the CheMixHub ionic liquid set.

Assay: xn = mol fraction of the nth substance listed

CCCC[n+]1ccn(C)c1.COP(=O)([O-])OC + CCCCCC(=O)O.CCCCCC(=O)[O-].CC[NH+](CC)CCO
101 kPa, x2 = 0
Conditions | viscosity [mPa·s]
298.15 K | 609
303.15 K | 426
318.15 K | 168.9
333.15 K | 79.9
358.15 K | 30.38
363.15 K | 25.86

CCCCCC[n+]1ccn(C)c1.N#Cc1ccc[n-]1 + CCCCCCCCCCCCCC[P+](CCCCCC)(CCCCCC)CCCCCC.O=S(=O)([N-]S(=O)(=O)C(F)(F)F)C(F)(F)F
283.15 K, 100 kPa
Conditions | viscosity [mPa·s]
x2 = 0 | 900
x2 = 0.1 | 890
x2 = 0.2 | 880
x2 = 0.501 | 850
x2 = 0.601 | 880
x2 = 0.7 | 850
x2 = 0.8 | 870
x2 = 0.9 | 810

[Cl-].[Cl-].[Co+2] + CCCCCCCCCCCCCC[P+](CCCCCC)(CCCCCC)CCCCCC.[Cl-] + CCCCCCCC(=O)O
Conditions | viscosity [mPa·s]
296.1 K, 101.3 kPa, x2 = 0.4, x1 = 0.2 | 8500

O=C([O-])CC(O)(CC(=O)[O-])C(=O)[O-].[Na+].[Na+].[Na+] + CCCCCCCCCCCC[N+](C)(C)C.[Br-] + O
298.15 K, 101 kPa
Conditions | electrical conductivity [S/m]
x1 = 0.0001801, x2 = 6.99e-05 | 0.2684
x1 = 0.0001801, x2 = 7.929e-05 | 0.2719
x1 = 0.0001801, x2 = 8.85e-05 | 0.2754
x1 = 0.0001801, x2 = 9.753e-05 | 0.2789
x1 = 0.0001801, x2 = 0.0001069 | 0.2823
x1 = 0.0001801, x2 = 0.0001161 | 0.2857
x1 = 0.0001801, x2 = 0.0001253 | 0.2892
x1 = 0.0001801, x2 = 0.0001344 | 0.2925
x1 = 0.0001801, x2 = 0.0001434 | 0.2957
x1 = 0.0001801, x2 = 0.0001524 | 0.2987
x1 = 0.0001801, x2 = 0.0001611 | 0.3009
x1 = 0.0001801, x2 = 0.0001696 | 0.3029
x1 = 0.0001801, x2 = 0.0001784 | 0.3047
x1 = 0.0001801, x2 = 0.0001916 | 0.3068
x1 = 0.0001801, x2 = 0.0002048 | 0.3082
x1 = 0.0001801, x2 = 0.0002178 | 0.3097
x1 = 0.0001801, x2 = 0.0002306 | 0.311
x1 = 0.0001801, x2 = 0.0002434 | 0.3121
x1 = 0.0001801, x2 = 0.0002561 | 0.3132
x1 = 0.0001801, x2 = 0.0002685 | 0.3143
x1 = 0.0001801, x2 = 0.000281 | 0.3154
x1 = 0.0001801, x2 = 0.0002933 | 0.3165
x1 = 0.0001801, x2 = 0.0003055 | 0.3176
x1 = 0.0001802, x2 = 0 | 0.2438
x1 = 0.0001802, x2 = 3.07e-06 | 0.2445
x1 = 0.0001802, x2 = 6.32e-06 | 0.2456
x1 = 0.0001802, x2 = 1.391e-05 | 0.2483
x1 = 0.0001802, x2 = 2.348e-05 | 0.2516
x1 = 0.0001802, x2 = 3.251e-05 | 0.2548
x1 = 0.0001802, x2 = 4.154e-05 | 0.258
x1 = 0.0001802, x2 = 5.076e-05 | 0.2614
x1 = 0.0001802, x2 = 6.015e-05 | 0.2648
x1 = 0.001798, x2 = 0.000148 | 1.558
x1 = 0.001798, x2 = 0.0001666 | 1.562
x1 = 0.001798, x2 = 0.0001847 | 1.565
x1 = 0.001798, x2 = 0.0002029 | 1.569
x1 = 0.001798, x2 = 0.0002206 | 1.573
x1 = 0.001798, x2 = 0.0002383 | 1.576
x1 = 0.001798, x2 = 0.0002559 | 1.579
x1 = 0.001798, x2 = 0.000273 | 1.582
x1 = 0.001798, x2 = 0.0002898 | 1.585
x1 = 0.001798, x2 = 0.0003068 | 1.588
x1 = 0.001798, x2 = 0.0003234 | 1.591
x1 = 0.001798, x2 = 0.0003396 | 1.594
x1 = 0.001798, x2 = 0.0003558 | 1.597
x1 = 0.001798, x2 = 0.0003717 | 1.599
x1 = 0.001798, x2 = 0.0003855 | 1.602
x1 = 0.001798, x2 = 0.0004015 | 1.604
x1 = 0.001798, x2 = 0.000417 | 1.607
x1 = 0.001798, x2 = 0.000448 | 1.611
x1 = 0.001799, x2 = 0 | 1.541
x1 = 0.001799, x2 = 6.09e-06 | 1.538
x1 = 0.001799, x2 = 1.458e-05 | 1.538
x1 = 0.001799, x2 = 2.214e-05 | 1.539
x1 = 0.001799, x2 = 2.989e-05 | 1.54
x1 = 0.001799, x2 = 4.188e-05 | 1.542
x1 = 0.001799, x2 = 5.738e-05 | 1.543
x1 = 0.001799, x2 = 7.288e-05 | 1.544
x1 = 0.001799, x2 = 9.225e-05 | 1.547
x1 = 0.001799, x2 = 0.0001101 | 1.55
x1 = 0.001799, x2 = 0.0001291 | 1.554

CCCCO + CCCCCCCCCCCC[N+](C)(C)Cc1ccccc1.O=S(=O)([N-]S(=O)(=O)C(F)(F)F)C(F)(F)F
101 kPa, x2 = 0
Conditions | viscosity [mPa·s]
298.15 K | 2.52
308.15 K | 1.98
313.15 K | 1.75
343.15 K | 0.92
348.15 K | 0.845

[Cl-].[Cl-].[Co+2] + CCCCCCCC[N+](C)(CCCCCCCC)CCCCCCCC.[Cl-] + CCCCCCCC(=O)O
Conditions | viscosity [mPa·s]
296.1 K, 101.3 kPa, x2 = 0.4, x1 = 0.2 | 428

[Cl-].[Cl-].[Co+2] + CCCCCCCC[N+](CCCCCCCC)(CCCCCCCC)CCCCCCCC.[Br-] + CCCCC/C=C\C/C=C\CCCCCCCC(=O)O
296.1 K, 101.3 kPa
Conditions | viscosity [mPa·s]
x2 = 0.4, x1 = 0.2 | 9700
x2 = 0.4286, x1 = 0.1429 | 2780

[Cl-].[Cl-].[Co+2] + CCCCCCCC[N+](CCCCCCCC)(CCCCCCCC)CCCCCCCC.[Br-] + CCCCCCCC(=O)O
296.1 K, 101.3 kPa
Conditions | viscosity [mPa·s]
x2 = 0.2857, x1 = 0.1429 | 2615
x2 = 0.4, x1 = 0.2 | 5700
x2 = 0.4286, x1 = 0.1429 | 7600

[Cl-].[Cl-].[Co+2] + CCCCCCCC[N+](CCCCCCCC)(CCCCCCCC)CCCCCCCC.[Br-] + CCCCCCCCCC(=O)O
Conditions | viscosity [mPa·s]
296.1 K, 101.3 kPa, x2 = 0.4, x1 = 0.2 | 55000

[Cl-].[Cl-].[Co+2] + CCCCCCCC[N+](CCCCCCCC)(CCCCCCCC)CCCCCCCC.[Br-] + Cc1ccc(C(C)C)c(O)c1
296.1 K, 101.3 kPa
Conditions | viscosity [mPa·s]
x2 = 0.4, x1 = 0.2 | 79000
x2 = 0.4286, x1 = 0.1429 | 48000

[Cl-].[Li+] + CCCCCCCCn1cc[n+](C)c1.N#C[S-] + CN1CCCC1=O
298.15 K, 101 kPa
Conditions | viscosity [mPa·s]
x2 = 0, x1 = 0.03756 | 2.607
x2 = 0, x1 = 0.07175 | 3.558
x2 = 0, x1 = 0.1044 | 4.958

CCCCCCCCn1cc[n+](C)c1.F[B-](F)(F)F + CCCCCCCCn1cc[n+](C)c1.[Cl-]
101 kPa
Conditions | electrical conductivity [S/m] | viscosity [mPa·s]
303 K, x2 = 0 | 0.0817 | –
303 K, x2 = 0.8 | 0.00551 | –
303.15 K, x2 = 0 | – | 258
303.15 K, x2 = 0.4 | – | 1093
308 K, x2 = 0.8 | 0.00853 | –
313 K, x2 = 0.6 | 0.0233 | –
318 K, x2 = 0 | 0.172 | –
318 K, x2 = 0.2 | 0.106 | –
318 K, x2 = 0.6 | 0.0327 | –
318.15 K, x2 = 0.8 | – | 1486
323 K, x2 = 0.6 | 0.0452 | –
328 K, x2 = 0.2 | 0.17 | –
333 K, x2 = 0 | 0.322 | –
333.15 K, x2 = 0 | – | 61

CCCCCCCCn1cc[n+](C)c1.O=[N+]([O-])[O-] + CCCCCCCCn1cc[n+](C)c1.[Cl-]
Conditions | viscosity [mPa·s]
293 K, 101 kPa, x2 = 0.3615 | 8500

CC(C)O + CCCCCC[N+](CC)(CC)CC.O=S(=O)([N-]S(=O)(=O)C(F)(F)F)C(F)(F)F
100 kPa, x1 = 1
Conditions | viscosity [mPa·s]
298.15 K | 2.05
303.15 K | 1.73
308.15 K | 1.49
